Assay results published in patent US4843085A, “Pyridine derivatives, process for production thereof and pharmaceutical compositions useful as anti-arhytmics” (Yamanouchi Pharmaceutical Co., Ltd., priority 1987, dated 1989).
Counter-ions that a name gives are not always drawn.

Tested on: corneal reflex responses
Test: Local anesthetic activity (corneal reflex responses)
Assay type: in vivo, guinea-pigs (male Hartley strain)
Details: instilled into the cornea, guinea-pigs
Description: Solutions of the compounds were instilled into the cornea, and the corneal reflex responses were determined.

In the case of `COC(=O)c1c(C)nc(C)c(C(=O)OC)c1-c1cc([N+](=O)[O-])ccc1OCCCCNC[C@H](O)COc1ccccc1.O=C(O)C(=O)O.O=C(O)C(=O)O` [Example 1, Dimethyl 4-[2-[4-[[(S)-2-hydroxy-3-phenoxypropyl]amino]butoxy]-5-nitrophenyl]-2,6-dimethylpyridine-3,5dicarboxylate dioxalate], the “ED50 (concentration required to inhibit corneal reflex responses by 50%)” value is reported as 0.49%.
`COC(=O)c1c(C)nc(C)c(C(=O)OC)c1-c1cc([N+](=O)[O-])ccc1OCCCCNC[C@@H](O)COc1ccccc1` [Example 2, Dimethyl 4-[2-[4-[[(R)-2-hydroxy-3-phenoxypropyl]amino]butoxy]-5-nitrophenyl]-2,6-dimethylpyridine-3,5-dicarboxylate oxalate] was tested, and the “ED50 (concentration required to inhibit corneal reflex responses by 50%)” value was 0.32%.
In the case of `CCN(CC)CC(=O)Nc1c(C)cccc1C` [Lidocaine, reference compound], the “ED50 (concentration required to inhibit corneal reflex responses by 50%)” value is reported as 0.82%.
